# Test system: CFTR
# Test: CFTR modulating activity, generated using one or more of the assays disclosed (e.g. membrane potential dye assay in enteroid cells)
# Assay type: cell-based, human
# Conditions: one or more of the assays disclosed herein; qualitative (Active / ND)
# Source text: Human intestinal epithelial enteroid cells may be obtained from the Hubrecht Institute for Developmental Biology and Stem Cell Research, Utrecht, The Netherlands and expanded in T-Flasks as previously described (Dekkers JF, Wiegerinck CL, de Jonge HR, Bronsveld I, Janssens HM, de Winter-de Groot KM, Brandsma AM, de Jong NWM, Bijvelds MJC, Scholte BJ, Nieuwenhuis EES, van den Brink S, Clevers H, van der Ent CK, Middendorp S and M Beekman JM. A functional CFTR assay using primary cystic fibrosis intestinal organoids. Nat Med. 2013 Jul;19(7):939-45.).
# Cells may be recovered in cell recovery solution, collected by centrifugation at 650 rpm for 5 min at 4° C., resuspended in TryPLE and incubated for 5 min at 37° C. Cells can then be collected by centrifugation at 650 rpm for 5 min at 4° C. and resuspended in IEMM containing 10 µM ROCK inhibitor (RI). The cell suspension is then passed through a 40 µm cell strainer and resuspended at 1x10^6 cells/mL in IEMM containing 10 µM RI. Cells may be seeded at 5000 cells/well into multi-well plates and incubated for overnight at 37° C., 95% humidity and 5% CO2 prior to assay.
# Enteroid cells may be incubated with test compound in IEMM for 18-24 hours at 37° C., 95% humidity and 5% CO2. Following compound incubations, a membrane potential dye assay can be employed using a FLIPR Tetra to directly measure the potency and efficacy of the test compound on CFTR-mediated chloride transport following acute addition of 10 µM forskolin and 300 nM N-[2,4-bis(1,1-dimethylethyl)-5-hydroxyphenyl]-1,4-dihydro-4-oxoquinoline-3-carboxamide. Briefly, cells aree washed 5 times in Bath 1 Buffer. Bath 1 Dye Solution is added and the cells are incubated for 25 min at room temperature. Following dye incubation, cells are washed 3 times in Chloride Free Dye Solution. Chloride transport is initiated by addition of Chloride Free Dye Stimulation Solution and the fluorescence signal is read for 15 min. The CFTR-mediated chloride transport for each condition may be determined from the AUC of the fluorescence response to acute forskolin and 300 nM N-[2,4-bis(1,1-dimethylethyl)-5-hydroxyphenyl]-1,4-dihydro-4-oxoquinoline-3-carboxamide stimulation.
# Chloride transport may be expressed as a percentage of the chloride transport following treatment with one or more reference standards or positive controls. Suitable reference standards/controls include one or more of Compound II, Compound III, Compound IV, and Compound A. Compound A is:
# Table 6 confirms CFTR modulating activity for representative compounds of the invention generated using one or more of the assays disclosed herein.
row,SMILES,CFTR Modulating Activity
1,"C[C@@H]1CN(c2nc(-n3ccc(OCCC4(C(F)(F)F)CC4)n3)ccc2C(=O)NS(=O)(=O)c2ccccc2)C(C)([Si](C)(C)C)C1 (single isomer, unassigned) [2-10 Isomer 2]",Active
2,"CC1(C)CC([Si](C)(C)C)CN1c1nc(-n2ccc(OCCC3(C(F)(F)F)CC3)n2)ccc1C(=O)NS(=O)(=O)c1ccccc1 (single isomer, unassigned) [2-13 Enantiomer 1, N-(Benzenesulfonyl)-2-(2,2-dimethyl-4-trimethylsilyl-pyrrolidin-1-yl)-6-[3-[2-[1-(Trifluoromethyl)Cyclopropyl]Ethoxy]Pyrazol-1-yl]Pyridine-3-carboxamide]",Active
3,"C[C@@H]1CN(c2nc(-n3ccc(OCCC4(C(F)(F)F)CC4)n3)c([Si](C)(C)C)cc2C(=O)NS(=O)(=O)c2ccccc2)C(C)(C)C1 [Compound 2-1, N-(Benzenesulfonyl)-6-[3-[2-[1-(Trifluoromethyl)Cyclopropyl]Ethoxy]Pyrazol-1-yl]-2-[(4S)-2,2,4-trimethylpyrrolidin-1-yl]-5-trimethylsilyl-pyridine-3-carboxamide]",Active
4,"C[C@@H]1CN(c2nc([Si](C)(C)c3ccccc3)ccc2C(=O)NS(=O)(=O)c2ccccc2)C(C)(C)C1 [Compound 2-2, N-(Benzenesulfonyl)-6-[Dimethyl(Phenyl)Silyl]-2-[(4S)-2,2,4-trimethylpyrrolidin-1-yl]Pyridine-3-carboxamide]",Active
5,"C[C@@H]1CN(c2nc([Si](C)(C)CCC(C)(C)C)ccc2C(=O)NS(=O)(=O)c2ccccc2)C(C)(C)C1 [Compound 2-3, N-(benzenesulfonyl)-6-[3,3-dimethylbutyl(dimethyl)silyl]-2-[(4S)-2,2,4-trimethylpyrrolidin-1-yl]pyridine-3-carboxamide]",Active
6,"Cc1ccc([Si](C)(C)c2ccc(C(=O)NS(=O)(=O)c3ccccc3)c(N3C[C@@H](C)CC3(C)C)n2)cc1 [Compound 2-4, N-(Benzenesulfonyl)-6-[Dimethyl(p-tolyl)Silyl]-2-[(4S)-2,2,4-trimethylpyrrolidin-1-yl]pyridine-3-carboxamide]",Active
7,"C[C@@H]1CN(c2nc(-n3ccc([Si](C)(C)CCC(C)(C)C)n3)ccc2C(=O)NS(=O)(=O)c2ccccc2)C(C)(C)C1 [Compound 2-5, N-(Benzenesulfonyl)-6-[3-[3,3-dimethylbutyl(Dimethyl)Silyl]Pyrazol-1-yl]-2-[(4S)-2,2,4-trimethylpyrrolidin-1-yl]Pyridine-3-carboxamide]",Active
8,"C[C@@H]1CN(c2nc(-n3ccc(OCCC4([Si](C)(C)C)CC4)n3)ccc2C(=O)NS(=O)(=O)c2ccccc2)C(C)(C)C1 [Compound 2-6, N-(Benzenesulfonyl)-2-[(4S)-2,2,4-trimethylpyrrolidin-1-yl]-6-[3-[2-(1-trimethylsilylcyclopropyl)Ethoxy]Pyrazol-1-yl] Pyridine-3-carboxamide]",Active
9,"C[C@@H]1CN(c2nc(-n3ccc(OCC[Si](C)(C)C)n3)ccc2C(=O)NS(=O)(=O)c2ccccc2)C(C)(C)C1 [Compound 2-7, N-(Benzenesulfonyl)-2-[(4S)-2,2,4-trimethylpyrrolidin-1-yl]-6-[3-(2-trimethylsilylethoxy)Pyrazol-1-yl]Pyridine-3-carboxamide]",Active
10,"C[C@@H]1CN(c2nc([Si](C)(C)C)ccc2C(=O)NS(=O)(=O)c2ccccc2)C(C)(C)C1 [Compound 2-8, N-(Benzenesulfonyl)-2-[(4S)-2,2,4-trimethylpyrrolidin-1-yl]-6-trimethylsilyl-pyridine-3-carboxamide]",Active
11,"C[C@@H]1CN(c2nc(-n3ccc(OCCC[Si](C)(C)C)n3)ccc2C(=O)NS(=O)(=O)c2ccccc2)C(C)(C)C1 [Compound 2-9, N-(Benzenesulfonyl)-2-[(4S)-2,2,4-trimethylpyrrolidin-1-yl]-6-[3-(3-trimethylsilylpropoxy)Pyrazol-1-yl]Pyridine-3-carboxamide]",Active
12,"C[C@@H]1CN(c2nc(-n3ccc(OC[Si](C)(C)C)n3)ccc2C(=O)NS(=O)(=O)c2ccccc2)C(C)(C)C1 [Compound 2-11, N-(Benzenesulfonyl)-2-[(4S)-2,2,4-trimethylpyrrolidin-1-yl]-6-[3-(Trimethylsilylmethoxy)Pyrazol-1-yl]Pyridine-3-carboxamide]",Active
13,"C[C@@H]1CN(c2nc(-n3ccc([Si](C)(C)CCC(F)(F)F)n3)ccc2C(=O)NS(=O)(=O)c2ccccc2)C(C)(C)C1 [Compound 2-12, N-(Benzenesulfonyl)-6-[3-[Dimethyl(3,3,3-trifluoropropyl)Silyl]Pyrazol-1-yl]-2-[(4S)-2,2,4-trimethylpyrrolidin-1-yl]Pyridine-3-carboxamide]",Active
14,"C[C@@H]1CN(c2nc(-n3ccc([Si](C)(C)C(C)(C)C)n3)ccc2C(=O)NS(=O)(=O)c2ccccc2)C(C)(C)C1 [Compound 2-14, N-(benzenesulfonyl)-6-[3-[Tert-butyl(Dimethyl)Silyl]Pyrazol-1-yl]-2-[(4S)-2,2,4-trimethylpyrrolidin-1-yl]Pyridine-3-carboxamide]",Active
15,"C[C@@H]1CN(c2nc(-n3ccc(OC[Si](C)(C)C(C)(C)C)n3)ccc2C(=O)NS(=O)(=O)c2ccccc2)C(C)(C)C1 [Compound 2-15, N-(Benzenesulfonyl)-6-[3-[[tert-butyl(dimethyl)silyl]methoxy]pyrazol-1-yl]-2-[(4S)-2,2,4-trimethylpyrrolidin-1-yl]pyridine-3-carboxamide]",Active
16,"C[C@@H]1CN(c2nc(-n3ccc(OCC(C)(C)C(F)(F)F)n3)ccc2C(=O)NS(=O)(=O)c2cccc([Si](C)(C)C)c2)C(C)(C)C1 [Compound 2-16, 6-[3-(3,3,3-trifluoro-2,2-dimethyl-propoxy)pyrazol-1-yl]-2-[(4S)-2,2,4-trimethylpyrrolidin-1-yl]—N—(3-trimethylsilylphenyl)sulfonyl-pyridine-3-carboxamide]",Active
17,"C[C@@H]1CN(c2nc(-n3ccc(OCCC4(C(F)(F)F)CC4)n3)ccc2C(=O)NS(=O)(=O)c2cccc([Si](C)(C)C)c2)C(C)(C)C1 [Compound 2-17, 6-[3-[2-[1-(Trifluoromethyl)Cyclopropyl]Ethoxy]Pyrazol-1-yl]-2-[(4S)-2,2,4-trimethylpyrrolidin-1-yl]-N-(3-trimethylsilylphenyl)Sulfonyl-pyridine-3-carboxamide]",Active
18,"C[C@@H]1CN(c2nc(-n3ccc([Si](C)(C)C)n3)ccc2C(=O)NS(=O)(=O)c2ccccc2)C(C)(C)C1 [Compound 2-18, N-(benzenesulfonyl)-2-[(4S)-2,2,4-trimethylpyrrolidin-1-yl]-6-(3-trimethylsilylpyrazol-1-yl)pyridine-3-carboxamide]",Active
